# Like-named read-outs stand apart in the source and are kept apart here.
# Tests used:
# [1] = system: P. aeruginosa GIMC5016:PA1840/36/2015; test: Susceptibility of isolate to main antimicrobial agents; assay type: cell-based
# in vitro = test: in vitro
# Protocol: A test compound (final concentration 10 μM) was incubated at 37 °C in SGF, SIF, or human plasma for 2, 2, or 4 h, respectively. 100 μL aliquots were taken from each sample and 300 μL of acetonitrile containing an internal standard was added. […] All compounds were tested in triplicate. The percentage of a remaining compound after incubation was determined based on the chromatographic peak area of the sample after incubation and that of time zero (freshly prepared and injected) sample.
# [2] = HEK293 cytotoxicity assay (Alamar Blue); assay type: cell-based; settings: human, HEK293, 72 h
# Protocol: The HEK 293 cell line was obtained from the European Collection of Authenticated Cell Cultures (ECACC, cat. # 85120602, Salisbury, UK). The cells were grown in a monolayer culture in Dulbecco’s Modified Eagle’s Medium (DMEM) (PanEco, Moscow, Russia), supplemented with 2 mM L-glutamine, 1% of a penicillin/streptomycin solution (Capricorn Scientific, Ebsdorfergrund, Germany), and 10% of heat inactivated fetal bovine serum (HyClone, Cytiva, Marlborough, MA, USA) in a humidified atmosphere containing 5% of CO2 at 37 °C (Binder, Germany). For the assay, HEK 293 cells were seeded in a 96-well plate (Corning, NY, USA) in 100 μL of the complete culture medium, at a final density of 2 × 10^3 cells/well, and were cultured for 24 h for proper attachment. Subsequently, the medium was removed, and the cells were exposed to a tested inhibitor at different concentrations for 72 h in 100 μL of the fresh complete culture medium. The sensitivity of the cells to the compounds was detected using the vital dye Alamar Blue (Invitrogen, San Diego, CA, USA). The Alamar Blue assay was performed according to the procedure described by O’Brien et al.. After incubation with the tested bCSE inhibitors, 10 μL of the Alamar Blue reagent was added into each well, the cell culture plates were returned to the humidified incubator, and the fluorescence was read after 3 h. The plates were exposed to an excitation light of 545 nm wavelength, and emission at 600 nm was measured on the CLARIOstar Plus (BMG LABTECH GmbH, Ortenberg, Germany). To determine half-maximal cytotoxic concentration (CC50), a four-parameter sigmoidal curve model (GraphPad Prism 8 software) was fitted to the measurement data.
# [3] = molecular target: S. aureus cystathionine-γ-lyase (bCSE) (Staphylococcus aureus, UniProt A0A0H3K724); test: IC50 assay: inhibition of H2S production by purified bCSE, WSP5 fluorescent probe; assay type: biochemical
# Protocol: (§1) Fluorescence spectrophotometry-based inhibitory activity toward purified bCSE and hCSE was measured in a 96-well nonbinding black plate (Greiner, Kremsmunster, Austria) at 100 μL of the reaction mixture per well. bCSE and hCSE (0.02 μM) were preincubated in a thermoshaker (Biosan, Riga, Latvia) (30 °C, 300 rpm) for 40 min in 50 mM sodium phosphate buffer (pH 8.0), supplemented with 10 μM pyridoxal 5′-phosphate (Sigma-Aldrich, St. Louis, MO, USA), 0.1% of Tween 20 (Sigma-Aldrich, St. Louis, MO, USA), and 1.2 μM Washington State Probe-5 (Cayman Chemical, Ann Arbor, MI, USA) (excitation: 500 nm, emission: 530 nm) at different concentrations of a tested inhibitor. The reaction was initiated by the addition of 100 μM L-cysteine (TCI, Chennai, Tamil Nadu, India) in 50 mM sodium phosphate buffer pH 8.0 to the reaction mixture, and the enzymatic activity was monitored for 12 h using a CLARIOstar Plus instrument (BMG LABTECH GmbH, Ortenberg, Germany). The 100 µM L-cysteine concentration used in the experiments corresponds to the maximal reported intracellular concentration in bacteria. The data were normalized to the positive and negative controls, and IC50 values were obtained by fitting to a four-parameter sigmoidal curve (inhibitor vs. response, variable slope model) in GraphPad Prism 8 software (GraphPad by Dotmatics, Boston, MA, USA). Each experiment was conducted with 2–3 technical replicates. IC50 values were means of at least two independent experiments.
# (§2) For the production of S. aureus cystathionine-γ-lyase (bCSE) and of human cystathionine-γ-lyase (hCSE), plasmids pSUMO:saCSE (Addgene # 54336) and pNIC28-Bsa4 (Addgene # 42365) were employed. Cultivation of a competent E. coli cell strain (Thermo Fisher Scientific, Waltham, MA, USA), transformed with a target plasmid, was carried out on a selective solid medium with kanamycin. Bacterial cells harboring the plasmid vector were cultured at 37 °C and 180 rpm until OD600 = 0.65. Then, isopropyl β-D1-thiogalactopyranoside (IPTG) was added to a final concentration of 1 mM. To obtain bCSE, the cells were cultured for 3.5 h at 37 °C; to obtain hCSE, the cells were cultured for 18–20 h at 25 °C. After centrifugation, cells were resuspended in a buffer composed of 50 mM Tris–HCl, at a pH of 8.0, and 300 mM sodium chloride. After that, the cells were lysed by ultrasonication, with a pulse duration of 15 s and an interval between pulses of 15 s. The amplitude of the ultrasonic vibrations was 50% of the maximum. After lysis, samples were centrifuged for 15 min (20,000× g at 4 ℃). The pH of the supernatant obtained after the centrifugation was adjusted to 7.5 by the addition of a 1 M solution of Tris–OH. Then, the test sample was subjected to filtration through a polyethersulfone membrane with a pore diameter of 0.22 μm.
# [4] = molecular target: T1, human cystathionine-γ-lyase (hCSE) (Homo sapiens, UniProt P32929); test: IC50 assay: inhibition of H2S production by purified hCSE, WSP5 fluorescent probe; assay type: biochemical; settings: for IC50: purified hCSE 0.02 μM, 100 μM L-cysteine, WSP5 probe, mean ± SD
# T1 construct: His6-TEV (N, cleaved yes); host or cells: E. coli
# Protocol: as §1, §2
# [5] = system: A. baumannii GIMC5509:ABT-52Ts19; test: MIC of antibiotics alone and with potentiators, clinical isolate; settings: A. baumannii GIMC5509:ABT-52Ts19, no potentiator
# [6] = system: P. aeruginosa GIMC5016:PA1840/36/2015; test: as above; settings: P. aeruginosa GIMC5016:PA1840/36/2015, no potentiator
# [7] = IC50 (uM), bCSE enzymatic IC50, rounded, repeated in Table S13
# [8] = IC50 (uM), bCSE enzymatic IC50, rounded, repeated in Table S14
# [9] = IC50 (uM), bCSE enzymatic IC50, rounded, repeated in Table S15
# [10] = IC50 biochemical assay bCSE, purified bCSE 0.02 μM, 100 μM L-cysteine, WSP5 probe, mean ± SD
# [11] = read-out: IC50 biochemical assay hCSE
# Chain of S. aureus cystathionine-γ-lyase (bCSE) (A0A0H3K724 entry or part of it): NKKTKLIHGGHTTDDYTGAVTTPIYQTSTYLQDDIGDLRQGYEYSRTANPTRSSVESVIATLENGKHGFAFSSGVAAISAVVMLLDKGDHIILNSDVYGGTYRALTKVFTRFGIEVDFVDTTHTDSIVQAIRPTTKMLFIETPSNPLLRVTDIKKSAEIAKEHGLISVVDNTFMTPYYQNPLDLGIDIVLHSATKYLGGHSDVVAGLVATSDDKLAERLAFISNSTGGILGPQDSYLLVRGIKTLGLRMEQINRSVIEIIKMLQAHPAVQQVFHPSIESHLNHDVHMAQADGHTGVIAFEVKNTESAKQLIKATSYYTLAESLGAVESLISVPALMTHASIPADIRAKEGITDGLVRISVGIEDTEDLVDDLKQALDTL
# T1 sequence (P32929 whole entry): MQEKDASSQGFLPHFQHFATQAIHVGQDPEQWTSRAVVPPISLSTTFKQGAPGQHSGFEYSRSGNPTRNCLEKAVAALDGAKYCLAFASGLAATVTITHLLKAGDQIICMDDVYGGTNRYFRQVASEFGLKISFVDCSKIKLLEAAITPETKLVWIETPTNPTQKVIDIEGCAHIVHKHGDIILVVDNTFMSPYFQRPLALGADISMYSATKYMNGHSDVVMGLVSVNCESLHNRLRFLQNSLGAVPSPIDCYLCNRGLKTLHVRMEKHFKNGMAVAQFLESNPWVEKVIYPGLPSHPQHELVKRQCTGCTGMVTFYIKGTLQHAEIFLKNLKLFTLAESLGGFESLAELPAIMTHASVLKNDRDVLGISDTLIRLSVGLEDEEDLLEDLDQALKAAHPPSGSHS
smiles,measurement,setting,value
NC[C@H]1O[C@H](O[C@H]2[C@H](O)[C@@H](O[C@H]3O[C@H](CO)[C@@H](O)[C@H](N)[C@H]3O)[C@H](N)C[C@@H]2N)[C@H](N)C[C@@H]1O [tobramycin],susceptibility of isolate (Sensitive to / Resistant to),[1],Resistant to
"CC(C)[N+](C)(CCOC(=O)C1c2ccccc2Oc2ccccc21)C(C)C [Propantheline, propantheline bromide, reference compound]","Stability in human plasma, % Remaining at 4 h","in vitro; 4 h, 10 μM",0.2%
same,"remaining at 4 h, 10 μM","in vitro; human, plasma, Stability in human plasma, % Remaining at 4 h",0.21 ± 0.04%
"COc1cccc2c1C(=O)c1c(O)c3c(c(O)c1C2=O)C[C@@](O)(C(=O)CO)C[C@@H]3O[C@H]1C[C@H](N)[C@H](O)[C@H](C)O1 [Doxorubicin, reference compound]",CC50 at 72 h,[2]; HEK293 cells,1.3 ± 0.71 µM
Cc1nnc(SCC2=C(C(=O)O)N3C(=O)[C@@H](NC(=O)Cn4cnnn4)[C@H]3SC2)s1 [cefazolin],susceptibility of isolate (Sensitive to / Resistant to),[1],Resistant to
O=C(O)c1ccc2ccn(Cc3cccc4ccccc34)c2c1 [Compound 3a],IC50,[3]; [7],79 µM
same,IC50,[3]; [8],79 µM
same,IC50,[3]; [9],79 µM
same,IC50,[3]; [10],79.3 ± 5.9 µM
same,IC50,[4]; [11],472 ± 37.3 µM
same,CC50 at 72 h,[2]; HEK293 cells,452 ± 21.5 µM
CC(C)(O/N=C(\C(=O)N[C@@H]1C(=O)N2C(C(=O)[O-])=C(C[n+]3ccccc3)CS[C@H]12)c1csc(N)n1)C(=O)O [ceftazidime],susceptibility of isolate (Sensitive to / Resistant to),[1],Resistant to
C[C@H]1COc2c(N3CCN(C)CC3)c(F)cc3c(=O)c(C(=O)O)cn1c23 [levofloxacin],susceptibility of isolate (Sensitive to / Resistant to),[1],Resistant to
O=C(O)c1cn(Cc2cccc3ccccc23)c2ccccc12 [Compound 1a],activity toward bCSE (in words),[3],did not show noticeable activity
same,IC50,[3]; [10],> 500 µM
same,activity toward hCSE (in words),[4],did not show noticeable activity
same,IC50,[4]; IC50 biochemical assay hCSE,> 500 µM
same,CC50 at 72 h,[2],432 ± 37.5 µM
"CO/N=C(\C(=O)N[C@@H]1C(=O)N2C(C(=O)[O-])=C(C[N+]3(C)CCCC3)CS[C@H]12)c1csc(N)n1 [Cefepim, cefepime]",susceptibility of isolate (Sensitive to / Resistant to),[1],Resistant to
same,MIC of antibiotic alone,[5],> 512 µg/mL
same,MIC of antibiotic alone,[6],256 µg/mL
O=C(O)c1ccc2c(ccn2Cc2ccc3ccccc3c2)c1 [Compound 4b],IC50,[3]; [7],110 µM
same,IC50,[3]; [8],110 µM
same,IC50,[3]; [9],110 µM
same,IC50,[3]; [10],110 ± 11.7 µM
same,IC50,[4]; [11],> 500 µM
same,CC50 at 72 h,[2]; HEK293 cells,217 ± 93.2 µM
CO/N=C(\C(=O)N[C@@H]1C(=O)N2C(C(=O)O)=C(COC(C)=O)CS[C@H]12)c1csc(N)n1 [cefotaxime],susceptibility of isolate (Sensitive to / Resistant to),[1],Resistant to
O=C(O)c1cccn1Cc1ccc2ccccc2c1 [Compound 5b],IC50,[3]; [7],> 500 µM
same,IC50,[3]; [8],> 500 µM
same,IC50,[3]; [9],> 500 µM
same,IC50,[3]; [10],> 500 µM
same,IC50,[4]; [11],> 500 µM
same,CC50 at 72 h,[2]; HEK293 cells,848 ± 72.2 µM
